Data on one compound can be found in article PMC3262757 (Chemistry Central Journal, 2011).

One assay deals with JNK1. Format: cell-based.
The subject of a further assay is JNK2. Format: cell-based.

Broadly, the IC50 is the concentration that inhibits the measured activity by half. The low end stands for inhibition by little substance, the high end for a need for much substance. `CCOc1nc(NC(=O)Cc2cc(OC)c(NC(C)=O)cc2OC)cc(N)c1C#N` [compound 2, 2-(4-acetylamino-2,5-dimethoxyphenyl)-N-(4-amino-5-cyano-6-ethoxypyridin-2-yl)acetamide]: the IC50 in the assay on JNK1 and in the assay with JNK2 was ~1.5 µM each time.
